Reference: US20150225377A1, “VEGFR3 INHIBITORS” (CANCER THERAPEUTICS CRC PTY LIMITED, priority 2012, published 2015)

target: T1, VEGFR3 cytoplasmic domain (Homo sapiens, UniProt P35916); test: VEGFR3 biochemical assay (AlphaScreen); conditions: GST-VEGFR3 cytoplasmic domain, 500 μM ATP (modified form: His-fusion, 1 μM ATP)
T1 construct: VEGFR3 cytoplasmic domain (amino acids 798-1298) was purchased as N-terminal GST-fusion protein; GST (N); purchased
Method: Compounds of the invention may be tested for in vitro activity in the following assay: A biotin labelled peptide is used as substrate (amino acid sequence: Biotin-[…]NH2). VEGFR3 cytoplasmic domain (amino acids 798-1298) was purchased as N-terminal GST-fusion protein (“the enzyme”). The 15 μL assay reactions are run in Greiner brand white 384-well low volume plates. All reactions contained 10 mM HEPES pH 7.4, 10 mM MgCl2, 0.01% (v/v) Tween-20, 50 μM Na3VO4, 0.01% (w/v) albumin from chicken egg white, 1 mM Dithiothreitol, 111 nM peptide substrate, 500 μM ATP, and 3.8 ng/reaction enzyme, with the enzyme being omitted from negative control reactions. Compounds were added in a volume of […] from dilution series prepared in DMSO, positive and negative control reactions receiving the same volume DMSO without compound. The plates were sealed with adhesive seals and incubated for 90 minutes at 30 degree Celsius. The reactions were stopped with the detection reagents added at the same time as follows: Product formation was quantified as amplified luminescence between PerkinElmer AlphaScreen™ beads, using Streptavidin-coated donor and anti-phosphotyrosine (P-Tyr-100) acceptor beads. To each reaction, 5 μL containing 10 mM HEPES pH 7.4, 25 mM NaCl, 100 mM EDTA, 0.01% (v/v) Tween-20, and 6.25 μg/mL of each bead type were added. Plates were incubated for 6 hours before being read on a PerkinElmer EnVision™ plate reader in HTS Alphascreen™ mode. IC50 values were obtained by calculating percent inhibition (% I) for each reaction relative to controls on the same plate (% I=(I-CN)/(CP-CN) where CN/CP are the averages of the negative/positive reactions, respectively), then fitting the % I data vs. compound concentration [I] to % I=(A+((B−A)/(1+((C/[I])̂D)))) where A is the lower asymptote, B is the upper asymptote, C is the IC50 value, and D is the slope factor.
The above assay was also run in a modified form in some cases (indicated below with *). In these cases, VEGFR3 cytoplasmic domain (amino acids 818-1177, lacking 949-1002 of UniProt accession number P35916) was expressed and purified as N-terminal Hexa-His-fusion protein (“the enzyme”), rather than using the N-terminal GST-fusion protein. The assay conditions were the same as above but with 1 μM ATP and 8 ng/reaction of the enzyme.

T1 sequence (P35916 798-1298 isoform P35916-1): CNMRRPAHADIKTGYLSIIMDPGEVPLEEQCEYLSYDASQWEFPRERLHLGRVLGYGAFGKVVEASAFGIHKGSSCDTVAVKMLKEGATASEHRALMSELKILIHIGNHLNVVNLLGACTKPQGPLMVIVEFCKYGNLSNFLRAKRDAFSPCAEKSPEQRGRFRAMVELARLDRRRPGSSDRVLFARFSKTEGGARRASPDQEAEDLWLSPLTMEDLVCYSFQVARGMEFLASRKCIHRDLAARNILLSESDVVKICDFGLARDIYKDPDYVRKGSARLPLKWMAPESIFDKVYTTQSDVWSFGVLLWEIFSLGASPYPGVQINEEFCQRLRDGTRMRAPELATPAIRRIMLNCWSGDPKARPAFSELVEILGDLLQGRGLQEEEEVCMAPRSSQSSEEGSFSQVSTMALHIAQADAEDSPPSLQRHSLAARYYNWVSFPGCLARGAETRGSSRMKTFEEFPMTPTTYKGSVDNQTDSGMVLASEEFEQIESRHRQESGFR

Structure (SMILES) | IC50 [nM]
NC(=O)Cc1ccccc1CCc1ccnc(Nc2ccc(N3CCNCC3)cc2)n1 [Compound 1, 2-(2-(2-(2-((4-(piperazin-1-yl)phenyl)amino)pyrimidin-4-yl)ethyl)phenyl)acetamide] | 161
NC(=O)Cc1ccccc1CCc1nc(Nc2ccc(C3CCNCC3)c(F)c2)ncc1C(F)(F)F [Compound 7, 2-(2-(2-(2-((3-Fluoro-4-(piperidin-4-yl)phenyl)amino)-5-(trifluoromethyl)pyrimidin-4-yl)ethyl)phenyl)acetamide] | 40
Cc1cnc(Nc2ccc(CN)cc2)nc1CCc1ccccc1CC(N)=O [Compound 27, 2-(2-(2-(2-((4-(aminomethyl)phenyl)amino)-5-methylpyrimidin-4-yl)ethyl)phenyl)acetamide] | 118
COC(=O)NC1(c2ccc(Nc3ncc(C)c(CCc4ccccc4CC(N)=O)n3)cc2)CCC1 [Compound 29, methyl 1-(4-(4-(2-(2-amino-2-oxoethyl)phenethyl)-5-methylpyrimidin-2-ylamino)phenyl)cyclobutylcarbamate] | 17
Cc1cnc(Nc2cnn(C3CNC3)c2)nc1CCc1ccccc1CC(N)=O [Compound 30, 2-(2-(2-(2-((1-(azetidin-3-yl)-^1H-pyrazol-4-yl)amino)-5-methylpyrimidin-4-yl)ethyl)phenyl)acetamide] | 9
Cc1cnc(Nc2ccc(C3CNC3)cc2)nc1CCc1ccccc1CC(N)=O [Compound 32, 2-(2-(2-(2-((4-(azetidin-3-yl)phenyl)amino)-5-methylpyrimidin-4-yl)ethyl)phenyl)acetamide] | 52
Cc1cnc(Nc2ccc(C(C)N)cc2)nc1CCc1ccccc1CC(N)=O (stereo not drawn) [Compound 34, 2-(2-(2-(2-((4-(1-aminoethyl)phenyl)amino)-5-methylpyrimidin-4-yl)ethyl)phenyl)acetamide] | 71
NC(=O)Cc1ccccc1CCc1nc(Nc2cnn(C3CCNCC3)c2)ncc1C(F)(F)F [Compound 35, 2-(2-(2-(2-((1-(piperidin-4-yl)-^1H-pyrazol-4-yl)amino)-5-(trifluoromethyl)pyrimidin-4-yl)ethyl)phenyl)acetamide] | 23
CN1CCC(n2cc(Nc3ncc(C(F)(F)F)c(CCc4ccccc4CC(N)=O)n3)cn2)CC1 [Compound 36, 2-(2-(2-(2-((1-(1-methylpiperidin-4-yl)-^1H-pyrazol-4-yl)amino)-5-(trifluoromethyl)pyrimidin-4-yl)ethyl)phenyl)acetamide] | 50
CC(N)c1cccc(Nc2ncc(Cl)c(CCc3ccccc3CC(N)=O)n2)c1 (stereo not drawn) [Compound 38, 2-(2-(2-(2-((3-(1-aminoethyl)phenyl)amino)-5-chloropyrimidin-4-yl)ethyl)phenyl)acetamide] | 76

Next, values leading:

IC50 [nM] | Structure (SMILES)
34 | CN1CCC(c2ccc(Nc3ncc(C(F)(F)F)c(CCc4ccccc4CC(N)=O)n3)cc2F)CC1 [Compound 8, 2-(2-(2-(2-((3-fluoro-4-(1-methylpiperidin-4-yl)phenyl)amino)-5-(trifluoromethyl)pyrimidin-4-yl)ethyl)phenyl)acetamide]
76 | CN1CCC(c2ccc(Nc3ncc(C(F)(F)F)c(CCc4ccc(F)cc4CC(N)=O)n3)cc2)CC1 [Compound 10, 2-(5-fluoro-2-(2-(2-((4-(1-methylpiperidin-4-yl)phenyl)amino)-5-(trifluoromethyl)pyrimidin-4-yl)ethyl)phenyl)acetamide]
81 | CN1CCC(c2ccc(Nc3ncc(C(F)(F)F)c(CCc4ccccc4CC(N)=O)n3)cn2)CC1 [Compound 14, 2-(2-(2-(2-((6-(1-methylpiperidin-4-yl)pyridin-3-yl)amino)-5-(trifluoromethyl)pyrimidin-4-yl)ethyl)phenyl)acetamide]
31 | NC(=O)Cc1ccc(F)cc1CCc1nc(Nc2ccc(C3CCNCC3)cc2)ncc1C(F)(F)F [Compound 15, 2-(4-fluoro-2-(2-(2-((4-(piperidin-4-yl)phenyl)amino)-5-(trifluoromethyl)pyrimidin-4-yl)ethyl)phenyl)acetamide]
67 | CN1CCC(c2ccc(Nc3ncc(C(F)(F)F)c(CCc4cc(C(F)(F)F)ccc4CC(N)=O)n3)cc2)CC1 [Compound 17, 2-(2-(2-(2-((4-(1-methylpiperidin-4-yl)phenyl)amino)-5-(trifluoromethyl)pyrimidin-4-yl)ethyl)-4-(trifluoromethyl)phenyl)acetamide]
37 | NC(=O)Cc1ccccc1CCc1nc(Nc2ccc(C3CNC3)cc2)ncc1C(F)(F)F [Compound 20, 2-(2-(2-(2-((4-(azetidin-3-yl)phenyl)amino)-5-(trifluoromethyl)pyrimidin-4-yl)ethyl)phenyl)acetamide]
72 | COc1cnc(Nc2ccc(C3CCNCC3)cc2)nc1CCc1ccccc1CC(N)=O [Compound 23, 2-(2-(2-(5-methoxy-2-((4-(piperidin-4-yl)phenyl)amino)pyrimidin-4-yl)ethyl)phenyl)acetamide]
278 | NC(=O)Cc1cc(C(F)(F)F)ccc1CCc1nc(Nc2ccc(C3CCNCC3)cc2)ncc1C(F)(F)F [Compound 25, 2-(2-(2-(2-((4-(piperidin-4-yl)phenyl)amino)-5-(trifluoromethyl)pyrimidin-4-yl)ethyl)-5-(trifluoromethyl)phenyl)acetamide]
10 | CC(=O)NC(C)c1cccc(Nc2ncc(Cl)c(CCc3ccccc3CC(N)=O)n2)c1 (stereo not drawn) [Compound 39, 2-(2-(2-(2-((3-(1-acetamidoethyl)phenyl)amino)-5-chloropyrimidin-4-yl)ethyl)phenyl)acetamide]
187 | CC(N)c1ccc(Nc2ncc(C(F)(F)F)c(CCc3ccccc3CC(N)=O)n2)cn1 (stereo not drawn) [Compound 40, 2-(2-(2-(2-((6-(1-Aminoethyl)pyridin-3-yl)amino)-5-(trifluoromethyl)pyrimidin-4-yl)ethyl)phenyl)acetamide]
26 | NC(=O)Cc1cccc(F)c1CCc1nc(Nc2ccc(C3CCNCC3)cc2)ncc1C(F)(F)F [Compound 41]
